Source: US20230218723A1, “COMPOSITIONS AND METHODS FOR USING SILK-ELASTINLIKE PROTEIN-BASED POLYMERS” (University of Utah Research Foundation, priority 2019, published 2023)

How the values were obtained:
L-929 fibroblasts = assay: Cytotoxicity of ICG and SELP-ICG, CCK-8, L-929; format: cell-based, murine; settings: L929 cells, 24 hrs, as ICG concentration
Text: (§1) L-929 and HUVEC were selected for use in assessing the cytotoxicity of the SELP-ICG embolic based upon their utility with respect to regulatory testing and relevance to the intended application of the device. L-929 cells are commonly used for FDA testing of contact cytotoxicity of medical devices, such as embolics. HUVEC represents a human cell line, another common cell that is also frequently used for evaluating cytotoxicity. Additionally, HUVEC represents vascular endothelial cells that embolic SELP will be in close contact with during in vivo administration. L-929 fibroblasts were grown with Dulbecco's Modified Eagle Medium (DMEM):F12 (1:1) media, supplemented with 10% FBS, and HUVECs were grown in ECGM. The cells were grown in T-75 flasks at 37° C. with 5% CO2 and passaged at 80-95% confluency. Cells were suspended using TrypLE™ Express Enzyme with no phenol red according to the manufactures protocol. The viability of cells was assessed using 0.4% trypan blue stain using a Countess Automated Cell Counter (ThermoFisher Scientific, Waltham, Mass.). L-929 cells were seeded into new T-75 flasks with 3×10^5 to 6×10^5 viable cells. […] Viability was measured after 24 hrs using a Cell Counting Kit (CCK)-8 assay kit (Dojindo, Kumamoto, Japan). […] LD50 values were determined by fitting the data to a Hill plot with a variable slope using GraphPad Prism 5.0.

HUVEC = assay: Cytotoxicity of ICG and SELP-ICG, CCK-8, HUVEC; format: cell-based, human; settings: 24 hrs, as ICG concentration
Text: as §1

[1] = ICG fluorescence imaging, IVIS and clinical endoscope; format: physicochemical
Description: A Karl Storz 4 mm×18 cm ICG endoscope (Karl Storz, Tuttlingen, Germany) attached with a Power LED light source with fiber optic ICG cable and Karl Storz Image is Video System with ICG High Def Camera Head (Karl Storz, Tuttlingen, Germany) was used for imaging the ICG at different concentrations. ICG solution was prepared by mixing 25 mg of ICG in 1 mL of water, resulting in a 25 mg/mL solution. The solution was diluted by half in subsequent wells of a 96-well plate, and the last well was filled with only water (negative control). The endoscope's imaging head was held 4 mm above the surface of the 96-well plate to acquire images. Fluorescent light was captured by the camera and shown as blue. The intensity of the fluorescent light was quantified using the Zen Lite Blue software version 2.6 (Zeiss, Oberkochen, Germany). A fixed area of equal size for each well was selected, and the fluorescence was quantified by taking the arithmetic mean intensity of blue contribution for that particular region in pixels. IVIS was used to image ICG at different concentrations. […] An overlay image combination of photographic and fluorescent image was recorded. The region of interest (ROI) tool was used to perform quantification of the surface intensities. Equal size ROIs were drawn on each well of the plate, and the radiant efficiency was recorded by the software for each defined ROI. […]

[2] = cited from earlier work

CC1(C)C(/C=C/C=C/C=C/C=C2\N(CCCCS(=O)(=O)O)c3ccc4ccccc4c3C2(C)C)=[N+](CCCCS(=O)(=O)[O-])c2ccc3ccccc3c21 [ICG, Indocyanine green]
LD50 (L-929 fibroblasts): 0.28 ± 0.14 mg/mL | LD50 (HUVEC): 0.068 ± 0.009 mg/mL | optimal concentration for fluorescence ([1]; IVIS and Karl Storz ICG endoscope): 0.012 mg/mL | concentration above which self-quenching occurs ([1]; image analysis): higher than 0.012 mg/mL | half-life ([2]; clearance from the bloodstream after intravenous administration): 3 to 5 min | share of the dose remaining within the tumor by the time of surgery ([2]; intravenous administration): approximately 0.05%
